These results are taken from US10730874B2 (Shire Human Genetic Therapies, Inc., priority 2018, dated 2020).

Usually pEC50 stands for the EC50 on a negative log10 scale, so that one unit is a factor of ten.

pEC50: −log10 of the molar value.

This experiment deals with human activated kallikrein enzyme (plasma kallikrein) (Homo sapiens (Human), UniProt P03952). The experiment can be described thus: Inhibition of human activated plasma kallikrein, fluorogenic peptide substrate assay, 500 pM enzyme format. It counts as biochemical. Conditions: 500 pM activated kallikrein enzyme, 300 uM Pro-Phe-Arg-7-amido-4-methylcoumarin substrate, 30 min preincubation, 10 min at RT; read-out: Primary Dose Response Assay: Average EC50. Summed up: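 Buffer 20 mM Tris pH 7.5, EDTA, NaCl, PEG-400, Triton X-100; 300 uM Pro-Phe-Arg-AMC; enzyme–inhibitor preincubation 30 min RT. Format one: 500 pM kallikrein, 10 min RT reaction; format two: 5 pM kallikrein, 18 h RT reaction. Fluorescence read at 460 nm (380 nm excitation).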
Sequence of human activated kallikrein enzyme (plasma kallikrein) (P03952 391-638): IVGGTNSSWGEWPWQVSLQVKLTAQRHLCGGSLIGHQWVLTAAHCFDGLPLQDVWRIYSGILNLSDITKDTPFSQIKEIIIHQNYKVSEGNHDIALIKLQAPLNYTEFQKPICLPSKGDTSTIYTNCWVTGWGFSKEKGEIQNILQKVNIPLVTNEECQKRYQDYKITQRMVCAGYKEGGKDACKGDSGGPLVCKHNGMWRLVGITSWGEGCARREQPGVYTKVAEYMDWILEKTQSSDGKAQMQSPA
Sequence of human activated kallikrein enzyme (plasma kallikrein) (P03952 20-390 partner): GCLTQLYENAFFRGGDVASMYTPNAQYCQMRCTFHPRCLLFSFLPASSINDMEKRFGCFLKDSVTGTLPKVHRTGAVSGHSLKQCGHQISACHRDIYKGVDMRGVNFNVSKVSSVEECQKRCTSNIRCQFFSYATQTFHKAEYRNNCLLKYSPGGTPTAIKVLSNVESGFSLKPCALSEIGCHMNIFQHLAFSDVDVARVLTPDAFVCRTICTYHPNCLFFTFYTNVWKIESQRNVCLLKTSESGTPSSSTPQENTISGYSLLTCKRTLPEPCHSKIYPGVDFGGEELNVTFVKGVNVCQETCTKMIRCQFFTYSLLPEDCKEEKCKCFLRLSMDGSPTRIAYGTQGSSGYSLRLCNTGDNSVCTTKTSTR
Turning to `O=C(NCc1ncn2ccc(Cl)cc12)c1cn(Cc2cn3cc(C4CC4)ccc3n2)nc1Cc1nn[nH]n1` [Example I-126, 3-((2H-tetrazol-5-yl)methyl)-N-((7-chloroimidazo[1,5-a]pyridin-1-yl)methyl)-1-((6-cyclopropylimidazo[1,2-a]pyridin-2-yl)methyl)-1H-pyrazole-4-carboxamide], the pEC50 was more than 9.00.

Turning to `CCOC(=O)C1CC1c1cc(C2CC2)cn2cc(Cn3cc(C(=O)NCc4ncn5ccc(Cl)cc45)cn3)nc12` (stereo not drawn) [Example I-127, ethyl 2-(2-((4-(((7-chloroimidazo[1,5-a]pyridin-1-yl)methyl)carbamoyl)-1H-pyrazol-1-yl)methyl)-6-cyclopropylimidazo[1,2-a]pyridin-8-yl)cyclopropane-1-carboxylate], the pEC50 was more than 9.00.

As to `N#Cc1cc(C2CC2)cn2cc(Cc3nnc(C(=O)NCc4ncn5ccc(Cl)cc45)o3)nc12` [Example I-128, N-((7-chloroimidazo[1,5-a]pyridin-1-yl)methyl)-5-((8-cyano-6-cyclopropylimidazo[1,2-a]pyridin-2-yl)methyl)-1,3,4-oxadiazole-2-carboxamide], the pEC50 was more than 9.00.

As for `O=C(NCc1ncn2ccc(Cl)cc12)c1cnn(Cc2cn3cc(C4CC4)cnc3n2)c1` [Example I-129, N-((7-chloroimidazo[1,5-a]pyridin-1-yl)methyl)-1-((6-cyclopropylimidazo[1,2-a]pyrimidin-2-yl)methyl)-1H-pyrazole-4-carboxamide], the pEC50 is more than 9.00.

Consider `Cc1ccc2nc(Cn3cc(C(=O)NCc4ncn5ccc(Cl)cc45)cn3)cn2c1C` [Example I-130], for which the pEC50 is 7.00 to 8.00.

For the molecule `N#Cc1cc(C2CC2)cn2cc(Cn3cc(C(=O)NCc4ncn5ccc(Br)c(F)c45)nn3)nc12` [Example I-131, N-((7-bromo-8-fluoroimidazo[1,5-a]pyridin-1-yl)methyl)-1-((8-cyano-6-cyclopropylimidazo[1,2-a]pyridin-2-yl)methyl)-1H-1,2,3-triazole-4-carboxamide], the negative logarithm of the EC50 (pEC50) is more than 9.00.

Regarding `O=C(NCc1ncn2ccc(Cl)cc12)c1cnn(Cc2cn3cc(C4CC4)cc(C4COC4)c3n2)c1` [Example I-132, N-((7-chloroimidazo[1,5-a]pyridin-1-yl)methyl)-1-((6-cyclopropyl-8-(oxetan-3-yl)imidazo[1,2-a]pyridin-2-yl)methyl)-1H-pyrazole-4-carboxamide], the pEC50 was more than 9.00.

Consider `O=C(NCc1ncn2ccc(Cl)cc12)c1cnn(Cc2cn3cc(C4CC4)cc(C4CC4C(=O)O)c3n2)c1` (stereo not drawn) [Example I-133, 2-(2-((4-(((7-chloroimidazo[1,5-a]pyridin-1-yl)methyl)carbamoyl)-1H-pyrazol-1-yl)methyl)-6-cyclopropylimidazo[1,2-a]pyridin-8-yl)cyclopropane-1-carboxylic acid], for which the pEC50 is more than 9.00.

Regarding `O=C(NCc1ncn2ccc(Br)c(F)c12)c1cn(Cc2cn3cc(C4CC4)ccc3n2)nn1` [Example I-134, N-((7-bromo-8-fluoroimidazo[1,5-a]pyridin-1-yl)methyl)-1-((6-cyclopropylimidazo[1,2-a]pyridin-2-yl)methyl)-1H-1,2,3-triazole-4-carboxamide], the pEC50 was more than 9.00.

For the molecule `O=C(NCc1ncn2ccc(Br)c(F)c12)c1nnn(Cc2cn3cc(C4CC4)ccc3n2)n1` [Example I-135, N-((7-bromo-8-fluoroimidazo[1,5-a]pyridin-1-yl)methyl)-2-((6-cyclopropylimidazo[1,2-a]pyridin-2-yl)methyl)-2H-tetrazole-5-carboxamide], the negative-log EC50 (pEC50) was more than 9.00.

On to `O=C(NCc1ncn2ccc(Br)c(F)c12)c1nnc(Cc2cn3cc(C4CC4)ccc3n2)o1` [Example I-136, N-((7-bromo-8-fluoroimidazo[1,5-a]pyridin-1-yl)methyl)-5-((6-cyclopropylimidazo[1,2-a]pyridin-2-yl)methyl)-1,3,4-oxadiazole-2-carboxamide], for which the pEC50 was more than 9.00.

For `O=C(NCc1ncn2ccc(Cl)c(F)c12)c1nnc(Cc2cn3cc(C4CC4)ccc3n2)o1` [Example I-137, N-((7-chloro-8-fluoroimidazo[1,5-a]pyridin-1-yl)methyl)-5-((6-cyclopropylimidazo[1,2-a]pyridin-2-yl)methyl)-1,3,4-oxadiazole-2-carboxamide], the pEC50 was more than 9.00.

As for `O=C(NCc1ncn2ccc(Cl)cc12)c1nnc(Cc2cn3nc(C4CC4)ccc3n2)o1` [Example I-138, N-((7-chloroimidazo[1,5-a]pyridin-1-yl)methyl)-5-((6-cyclopropylimidazo[1,2-b]pyridazin-2-yl)methyl)-1,3,4-oxadiazole-2-carboxamide], the pEC50 was more than 9.00.

Take `O=C(NCc1ncn2ccc(Br)c(F)c12)c1cn(Cc2cn3nc(C4CC4)ccc3n2)nn1` [Example I-139, N-((7-bromo-8-fluoroimidazo[1,5-a]pyridin-1-yl)methyl)-1-((6-cyclopropylimidazo[1,2-b]pyridazin-2-yl)methyl)-1H-1,2,3-triazole-4-carboxamide]: the pEC50 was more than 9.00.

`O=C(NCc1ncn2ccc(Br)c(F)c12)c1nnc(Cc2cn3nc(C4CC4)ccc3n2)o1` [Example I-140, N-((7-bromo-8-fluoroimidazo[1,5-a]pyridin-1-yl)methyl)-5-((6-cyclopropylimidazo[1,2-b]pyridazin-2-yl)methyl)-1,3,4-oxadiazole-2-carboxamide]: the negative-log EC50 (pEC50) is more than 9.00.

Consider `O=C(NCc1ncn2ccc(Cl)cc12)c1cnn(Cc2cn3cc(C4CC4)cc(C(O)C4COC4)c3n2)c1` (stereo not drawn) [Example I-141, N-((7-chloroimidazo[1,5-a]pyridin-1-yl)methyl)-1-((6-cyclopropyl-8-(hydroxy(oxetan-3-yl)methyl)imidazo[1,2-a]pyridin-2-yl)methyl)-1H-pyrazole-4-carboxamide], for which the pEC50 is more than 9.00.

For the molecule `COc1c(C2CC2)ccc2nc(Cn3cc(C(=O)NCc4ncn5ccc(Cl)cc45)cn3)cn12` [Example I-142, N-((7-chloroimidazo[1,5-a]pyridin-1-yl)methyl)-1-((6-cyclopropyl-5-methoxyimidazo[1,2-a]pyridin-2-yl)methyl)-1H-pyrazole-4-carboxamide], the pEC50 was 8.00 to 9.00.

Take `O=C(NCc1ncn2ccc(Cl)cc12)c1cnn(Cc2cn3cc(C4CC4)cc(C(F)(F)F)c3n2)c1` [Example I-143, N-((7-chloroimidazo[1,5-a]pyridin-1-yl)methyl)-1-((6-cyclopropyl-8-(trifluoromethyl)imidazo[1,2-a]pyridin-2-yl)methyl)-1H-pyrazole-4-carboxamide]: the pEC50 is more than 9.00.

Take `O=C(NCc1ncn2ccc(Cl)cc12)c1cn(Cc2cn3c(F)c(C4CC4)ccc3n2)nn1` [Example I-144, N-((7-chloroimidazo[1,5-a]pyridin-1-yl)methyl)-1-((6-cyclopropyl-5-fluoroimidazo[1,2-a]pyridin-2-yl)methyl)-1H-1,2,3-triazole-4-carboxamide]: the pEC50 is more than 9.00.

Regarding `O=C(NCc1ncn2ccc(Br)c(F)c12)c1cn(Cc2cn3c(F)c(C4CC4)ccc3n2)nn1` [Example I-145, N-((7-bromo-8-fluoroimidazo[1,5-a]pyridin-1-yl)methyl)-1-((6-cyclopropyl-5-fluoroimidazo[1,2-a]pyridin-2-yl)methyl)-1H-1,2,3-triazole-4-carboxamide], the pEC50 is more than 9.00.

As for `O=C(NCc1ncn2ccc(Cl)c(F)c12)c1cnn(Cc2cn3nc(C4CC4)ccc3n2)c1` [Example I-146, N-((7-chloro-8-fluoroimidazo[1,5-a]pyridin-1-yl)methyl)-1-((6-cyclopropylimidazo[1,2-b]pyridazin-2-yl)methyl)-1H-pyrazole-4-carboxamide], the pEC50 was more than 9.00.

Consider `O=C(NCc1ncn2ccc(Cl)c(F)c12)c1cnn(Cc2cn3cc(C4CC4)ccc3n2)c1` [Example I-147, N-((7-chloro-8-fluoroimidazo[1,5-a]pyridin-1-yl)methyl)-1-((6-cyclopropylimidazo[1,2-a]pyridin-2-yl)methyl)-1H-pyrazole-4-carboxamide], for which the pEC50 is more than 9.00.

Turning to `O=C(NCc1ncn2ccc(Cl)c(F)c12)c1cn(Cc2cn3cc(C4CC4)ccc3n2)nn1` [Example I-148, N-((7-chloro-8-fluoroimidazo[1,5-a]pyridin-1-yl)methyl)-1-((6-cyclopropylimidazo[1,2-a]pyridin-2-yl)methyl)-1H-1,2,3-triazole-4-carboxamide], the pEC50 was more than 9.00.

As for `N#Cc1cc(C2CC2)cn2cc(Cn3cc(C(=O)NCc4ncn5ccc(Cl)c(F)c45)nn3)nc12` [Example I-149, N-((7-chloro-8-fluoroimidazo[1,5-a]pyridin-1-yl)methyl)-1-((8-cyano-6-cyclopropylimidazo[1,2-a]pyridin-2-yl)methyl)-1H-1,2,3-triazole-4-carboxamide], the pEC50 was more than 9.00.

On to `O=C(NCc1ncn2ccc(Cl)c(F)c12)c1cn(Cc2cn3nc(C4CC4)ccc3n2)nn1` [Example I-150, N-((7-chloro-8-fluoroimidazo[1,5-a]pyridin-1-yl)methyl)-1-((6-cyclopropylimidazo[1,2-b]pyridazin-2-yl)methyl)-1H-1,2,3-triazole-4-carboxamide], for which the pEC50 was more than 9.00.

Consider `O=C(NCc1ncn2cc(F)c(Br)cc12)c1cnn(Cc2cn3cc(C4CC4)ccc3n2)c1` [Example I-151, N-((7-bromo-6-fluoroimidazo[1,5-a]pyridin-1-yl)methyl)-1-((6-cyclopropylimidazo[1,2-a]pyridin-2-yl)methyl)-1H-pyrazole-4-carboxamide], for which the pEC50 is 7.00 to 8.00.

In the case of `O=C(NCc1ncn2ccc(Cl)cc12)c1ncn(Cc2cn3cc(C4CC4)ccc3n2)n1` [Example I-152, N-((7-chloroimidazo[1,5-a]pyridin-1-yl)methyl)-1-((6-cyclopropylimidazo[1,2-a]pyridin-2-yl)methyl)-1H-1,2,4-triazole-3-carboxamide], the pEC50 was more than 9.00.
